The values that follow come from patent US10940139B2, “Compounds that interact with the Ras superfamily for the treatment of cancers, inflammatory diseases, rasopathies, and fibrotic disease” (Shy Therapeutics LLC, priority 2017, dated 2021).

Chain of KRas G12D/Q61H double mutant (P01116-2 other isoform, or with tags, fused parts or gaps G12D/Q61H): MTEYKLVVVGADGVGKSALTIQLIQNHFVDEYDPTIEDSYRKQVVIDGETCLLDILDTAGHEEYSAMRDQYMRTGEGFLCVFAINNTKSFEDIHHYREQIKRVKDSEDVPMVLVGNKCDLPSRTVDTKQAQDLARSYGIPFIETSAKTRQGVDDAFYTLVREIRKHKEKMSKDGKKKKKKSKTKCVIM

The first test concerns the target KRas G12D/Q61H double mutant (Homo sapiens (Human), UniProt P01116, G12D/Q61H). The test can be described thus: Ras GTP binding domain inhibition assay (labeled GTP). Conditions: 20 μM compound; KRas G12D/Q61H double mutant; read-out: % Inhibition at 20 μM of K-Ras mutant and wild-type protein, KRas G12D Q61H. The procedure, abridged:
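Labelled-GTP binding: plate-captured His-KRas protein was pre-exposed to compound for 3 h at room temperature (single 20 μM point or dilution series, 1% DMSO, Tris pH 7.5/MgCl2/DTT buffer). Cy3- or Cy5-GTP was then added for 45 min. Washed wells were read for retained fluorescence to give inhibition or IC50.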
Turning to `CCC(C)c1ccc(S(=O)(=O)NC(c2ccccc2)c2ccccn2)cc1` (stereo not drawn), the inhibition at 20 µM was 25 to 50%.

On to `CCN(C(=O)c1cnn(-c2ccccc2)n1)c1ccccc1`, for which the inhibition at 20 µM lay in the range of 1 to 25%.

For the molecule `COC(=O)c1ccc(COC(=O)c2oc3ccccc3c2COC(C)C)o1`, the inhibition at 20 µM was 25 to 50%.

For `O=C(Cc1ccc2c(c1)OCCO2)Nc1nc(-c2ccccn2)cs1` [drawing 3246], the inhibition at 20 µM lay in the range of 1 to 25%.

For `CC(O)(c1ccc(OCc2csc(Cc3ccccc3)n2)cc1)C(F)(F)F` (stereo not drawn), the inhibition at 20 µM fell in the range of 25 to 50%.

Regarding `CCN(C(=O)CCc1c(C)nc(-c2ccccn2)nc1O)C1CCCC1`, the inhibition at 20 µM was in the range of 51 to 75%.

Consider `O=C(Oc1ccc(Oc2ccccc2)cc1)c1ccccc1-c1ccc(C(F)(F)F)cc1`, for which the inhibition at 20 µM was in the range of 25 to 50%.

As for `COC(=O)C(C)CN(Cc1ccc(OCc2ccc([N+](=O)[O-])cc2)c(OC)c1)C1CC1` (stereo not drawn), the inhibition at 20 µM fell in the range of 25 to 50%.

With `COC(=O)c1c(NC(=O)Cc2cc(OC)c(OC)c(OC)c2)sc2c1CCCCC2`, the inhibition at 20 µM lay in the range of 25 to 50%.

With `COc1ccc(CCN/C(=N/C(=O)Nc2ccccc2)Nc2nc(C)cc(C)n2)cc1OC`, the inhibition at 20 µM was in the range of 25 to 50%.

In the case of `CC(C)(CNc1ccc(S(=O)(=O)N(Cc2ccccc2)Cc2ccccc2)cn1)N1CCOCC1`, the inhibition at 20 µM lay in the range of 25 to 50%.

As for `COc1ccc(CN(C(C)C2CC2)S(=O)(=O)c2cccs2)cc1` (stereo not drawn), the inhibition at 20 µM is 25 to 50%.

With `CCOc1ccc(Oc2ccc(C(F)(F)F)cc2NC(=O)CC(NC(C)=O)c2ccccc2)cc1` (stereo not drawn), the inhibition at 20 µM was in the range of 1 to 25%.

Take `O=[N+]([O-])c1cc(C(F)(F)F)ccc1NCc1ccc2c(c1)OCCCO2`: the inhibition at 20 µM was 25 to 50%.

On to `COc1cccc(CN(C)S(=O)(=O)N(C)Cc2ccc(F)cc2)c1`, for which the inhibition at 20 µM was in the range of 25 to 50%.

On to `COC(=O)c1ccc(CN2CC(NC(=O)OC(C)(C)C)CCC2C(F)(F)F)cc1` (stereo not drawn), for which the inhibition at 20 µM was 25 to 50%.

On to `Cc1nc(CN(C)CC23CC4CC(CC(C4)C2)C3)oc1C`, for which the inhibition at 20 µM fell in the range of 1 to 25%.

As for `NCC(=O)NCc1ccc(Oc2ccc(F)c(F)c2)cc1C(F)(F)F`, the inhibition at 20 µM was 1 to 25%.

The same test, now with this note: 20 μM compound; read-out: % Inhibition at 20 μM KRas G12D Q61H.
Take `Oc1nc(-c2ccccn2)nc2c(C3CCNCC3)csc12` [drawing 2711]: the inhibition at 20 µM was 51 to 75%.

In the case of `Cc1ccc(OCc2nnc(SCC3CCCCO3)o2)cc1` (stereo not drawn), the inhibition at 20 µM lay in the range of 1 to 25%.

Turning to `COCCN(CCOC)c1nc(-c2ccccn2)nc2c1CCC2`, the inhibition at 20 µM is 25 to 50%.

With `O=c1[nH]c(-c2cc(OCC(F)F)ccn2)nc2cc(F)c(F)cc12`, the inhibition at 20 µM was in the range of 25 to 50%.

Regarding `CCc1noc(CN(C)c2nc(-c3ccccn3)nc3c2CCC3)n1`, the inhibition at 20 µM fell in the range of 25 to 50%.

As for `COc1ccc2c(c1)CCCN2C(=O)CN(Cc1ccco1)S(=O)(=O)c1ccc(C)cc1`, the inhibition at 20 µM is 25 to 50%.

On to `COC(=O)c1ccc(C(=O)N2Cc3ccccc3C(c3ccccc3)C2)nc1` (stereo not drawn), for which the inhibition at 20 µM was 1 to 25%.

`Brc1csc2nc(-c3ccccn3)nc(N3CCOCC3)c12` [drawing 2701]: the inhibition at 20 µM is 1 to 25%.

Turning to `CCN(CC(=O)Nc1ccccc1OC)Cc1coc(-c2cccs2)n1`, the inhibition at 20 µM fell in the range of 1 to 25%.

Take `Cc1cccc(C)c1Oc1ccccc1NCc1nc(C2CC2)no1`: the inhibition at 20 µM lay within 25 to 50%.

Take `CCN(CCC(=O)OC)c1nc(-c2ccccn2)nc2c1CCC2`: the inhibition at 20 µM fell in the range of 25 to 50%.

As for `CC(OCC1CC1)C(=O)Nc1nnc(-c2ccccn2)[nH]1` (stereo not drawn), the inhibition at 20 µM fell in the range of 25 to 50%.

With `O=C(Nc1nc(-c2cccnc2)cs1)c1ccccn1`, the inhibition at 20 µM is 25 to 50%.

As for `C=CCc1ccc(OCCn2c(CN3CCOCC3)nc3ccccc32)c(OC)c1`, the inhibition at 20 µM lay in the range of 25 to 50%.

With `c1ccc(Oc2ccccc2NCc2nc(C3CC3)no2)cc1`, the inhibition at 20 µM is 25 to 50%.

Turning to `COc1ccccc1CN(Cc1cccs1)C(=O)c1ccc(Br)o1`, the inhibition at 20 µM was 25 to 50%.

Take `CCc1cc(NC(C)C(=O)N2CCOCC2)nc(-c2ccccn2)n1` (stereo not drawn): the inhibition at 20 µM was in the range of 1 to 25%.

`O=C(CSCc1ccccn1)Nc1nnc(-c2ccccn2)[nH]1`: the inhibition at 20 µM lay in the range of 25 to 50%.

As to `COc1ccccc1CC(=O)N(CC(F)(F)F)C1CCCOC1` (stereo not drawn), the inhibition at 20 µM lay in the range of 1 to 25%.

Regarding `CN(Cc1ccc(C(=O)NCC(F)(F)F)cc1)Cc1ccc(F)cc1Cl`, the inhibition at 20 µM lay in the range of 25 to 50%.

For the molecule `Cc1nc(C2CCCN2c2nccc(C(F)(F)F)n2)no1` (stereo not drawn), the inhibition at 20 µM was in the range of 25 to 50%.

Turning to `CCN(C(=O)c1ccc(COc2ccccc2F)o1)c1ccccc1C`, the inhibition at 20 µM lay in the range of 1 to 25%.

Regarding `O=C(Nc1nc(-c2ccccn2)cs1)c1cc(F)cc(F)c1`, the inhibition at 20 µM is 1 to 25%.

`O=C(Nc1nnc(-c2ccccn2)[nH]1)C1CC(=O)N(C2CCCC2)C1` (stereo not drawn): the inhibition at 20 µM was in the range of 25 to 50%.

On to `Cc1ccc(S(=O)(=O)NC(c2ccccc2)c2ccccn2)c(Cl)c1` (stereo not drawn), for which the inhibition at 20 µM is 25 to 50%.

On to `Cc1cccc(Oc2ccc(S(=O)(=O)N3CCCCC3)cc2NCc2cc(C)on2)c1`, for which the inhibition at 20 µM is 1 to 25%.

Turning to `CC(C)CN1CC(C(=O)Nc2nc(-c3ccccn3)cs2)CC1=O` (stereo not drawn), the inhibition at 20 µM was 1 to 25%.

Regarding `COc1ccc(OC)c(S(=O)(=O)N(Cc2ccccc2)Cc2ccccc2)c1`, the inhibition at 20 µM is 25 to 50%.

As for `CC(C)Cn1cnnc1C1CCCN1c1ccc(C#N)c(C(F)(F)F)c1` (stereo not drawn), the inhibition at 20 µM is 25 to 50%.

With `O=C(c1csc2c(O)nc(-c3ccccn3)nc12)N1CCN(c2ccccc2Cl)CC1` [drawing 2718], the inhibition at 20 µM lay in the range of 51 to 75%.

Take `c1ccc(-c2nc(N3CCOCC3)c3ccsc3n2)nc1` [drawing 2702]: the inhibition at 20 µM fell in the range of 51 to 75%.

In the case of `CC(C)Cc1csc2[nH]c(-c3ccccn3)nc(=O)c12`, the inhibition at 20 µM was in the range of 25 to 50%.

Regarding `Cc1nc(-c2ccccn2)sc1C(=O)NCCNc1ncccn1`, the inhibition at 20 µM lay in the range of 1 to 25%.

For the molecule `Cc1cnc(-c2ccccn2)nc1NC(=O)Cc1ccc(C#N)cc1` [drawing 2814], the inhibition at 20 µM was in the range of 1 to 25%.

Consider `CC(Oc1ccc(F)cc1)c1nnc(SCCOc2ccc(F)cc2)o1` (stereo not drawn), for which the inhibition at 20 µM is 25 to 50%.

Consider `COC(=O)c1cccc(CN2CCN(c3cccc(C(F)(F)F)c3)CC2)c1`, for which the inhibition at 20 µM was 25 to 50%.

Turning to `Cc1cccc(OCCn2c(CN3CCCCC3)nc3ccccc32)c1C`, the inhibition at 20 µM was in the range of 1 to 25%.

For the molecule `O=C(CCN1C(=O)CSc2ccccc21)Nc1nnc(-c2ccccn2)[nH]1`, the inhibition at 20 µM lay within 25 to 50%.

As to `O=C(Nc1nnc(-c2ccccn2)[nH]1)C1CCS(=O)(=O)C1` (stereo not drawn), the inhibition at 20 µM fell in the range of 25 to 50%.

Consider `CN(C(=O)c1ccc(COc2ccccc2)o1)C1CCCCC1`, for which the inhibition at 20 µM fell in the range of 1 to 25%.

As for `CCOCCC1CCN(C(=O)c2csc3c(O)nc(N)nc23)CC1` [drawing 2660], the inhibition at 20 µM is 1 to 25%.

For the molecule `COc1ccc(CN(Cc2cccs2)C(=O)c2oc3ccccc3c2C)cc1OC`, the inhibition at 20 µM lay within 25 to 50%.

In the case of `CCOCCC1CCN(C(=O)c2csc3c(O)nc(-c4ccccn4)nc23)CC1` [drawing 2676], the inhibition at 20 µM was 51 to 75%.

Regarding `Cc1noc(CN(Cc2ccc(C#N)cc2)Cc2cccc(F)c2)n1`, the inhibition at 20 µM lay in the range of 1 to 25%.

As to `Cc1nc(CN(Cc2ccccc2[N+](=O)[O-])C(C)c2ccc(Cl)cc2)oc1C` (stereo not drawn), the inhibition at 20 µM was in the range of 25 to 50%.

For the molecule `CNC(=O)CNc1nc(-c2ccccn2)nc2scc(-c3ccccc3)c12`, the inhibition at 20 µM lay in the range of 25 to 50%.

As to `COc1ccc(N2CCN(C(=O)c3csc4c(O)nc(-c5ccccn5)nc34)CC2)cc1`, the inhibition at 20 µM lay in the range of 25 to 50%.

The test is the same for the next values; noted with them: 20 μM; read-out: KRas G12D Q61H % Inh.
On to `FC(F)(F)Sc1ccc(Cc2ccc(SC(F)(F)F)cc2)cc1` [drawing 2616], for which the inhibition at 20 µM lay in the range of 51 to 75%.

On to `CCOc1cc(C(=O)Oc2c(C)ccc(C)c2C)cc(OCC)c1OCC` [drawing 2622], for which the inhibition at 20 µM is 51 to 75%.

On to `O=C(COc1ccccc1)N1CCCc2c(O)nc(-c3ccccn3)nc21` [drawing 2638], for which the inhibition at 20 µM lay within 76 to 100%.

Consider `O=C(CC1CCCC1)NCC(=O)Nc1nnc(-c2ccccn2)[nH]1` [drawing 2500], for which the inhibition at 20 µM lay within 51 to 75%.

As to `Cn1ccc(C(=O)Nc2nnc(-c3ccccn3)[nH]2)cc1=O` [drawing 2476], the inhibition at 20 µM was 25 to 50%.

For the molecule `O=C(Nc1nc(-c2ccccn2)cs1)c1ccc2[nH]cnc2c1` [drawing 2571], the inhibition at 20 µM lay within 51 to 75%.

`O=C(Nc1nnc(-c2ccccn2)[nH]1)c1cccc(NC(=O)C2CCCO2)c1` (stereo not drawn) [drawing 2498]: the inhibition at 20 µM lay in the range of 51 to 75%.

For `O=C(CCCc1nc2ccccc2s1)Nc1nnc(-c2ccccn2)[nH]1`, the inhibition at 20 µM lay within 51 to 75%.

Regarding `Cc1oc(-c2ccccc2)nc1C(=O)Nc1nnc(-c2ccccn2)[nH]1` [drawing 2463], the inhibition at 20 µM was 51 to 75%.

For `O=C(Nc1nc(-c2ccccn2)cs1)C1COc2ccccc2O1` (stereo not drawn) [drawing 2566], the inhibition at 20 µM was in the range of 51 to 75%.

On to `COc1ccc(-c2csc3[nH]c(-c4ccccn4)nc(=O)c23)cc1` [drawing 2582], for which the inhibition at 20 µM is 51 to 75%.

On to `COC(=O)c1ccc(C(=O)NCC2(c3ccccc3OC)CCCC2)nc1` [drawing 2623], for which the inhibition at 20 µM was in the range of 25 to 50%.

With `CC(C)c1noc(CCCC(=O)Nc2nnc(-c3ccccn3)[nH]2)n1` [drawing 2483], the inhibition at 20 µM fell in the range of 51 to 75%.

Regarding `Cn1cc(-c2nc(C(=O)Nc3nnc(-c4ccccn4)[nH]3)cs2)cn1` [drawing 2474], the inhibition at 20 µM was in the range of 76 to 100%.

For `Cc1c(C(=O)Nc2nnc(-c3ccccn3)[nH]2)oc2ccccc12` [drawing 2465], the inhibition at 20 µM lay in the range of 51 to 75%.

Take `O=C(Nc1nnc(-c2ccccn2)[nH]1)C1COc2ccccc2C1` (stereo not drawn) [drawing 2490]: the inhibition at 20 µM is 51 to 75%.

Take `O=C(Nc1nnc(-c2ccccn2)[nH]1)C1CCCN(C(=O)c2cccs2)C1` (stereo not drawn): the inhibition at 20 µM lay within 51 to 75%.

As to `CC(COCc1ccccc1)C(=O)Nc1nnc(-c2ccccn2)[nH]1` (stereo not drawn) [drawing 2517], the inhibition at 20 µM lay within 51 to 75%.

As to `NC(=O)c1ccc(OCC(=O)Nc2nnc(-c3ccccn3)[nH]2)cc1` [drawing 2538], the inhibition at 20 µM was in the range of 51 to 75%.
